In US11628228B2, “99mTc-labeled isonitrile-containing glucose derivative and preparation method and use thereof” (Beijing Shihong Pharmaceutical Research Center, priority 2017, dated 2023):

How the values were obtained:
S180-bearing mice = assay: Bio-distribution in tumor-bearing mice; type: in vivo; conditions: for Blood uptake / Bone uptake / Heart uptake / Kidney uptake / Liver uptake / Lung uptake / Muscle uptake / Small intestine uptake / Spleen uptake / Stomach uptake / Tumor uptake / Tumor/blood ratio / Tumor/muscle ratio: S180-bearing mice, tail vein; for Tumor/liver ratio: tumor-bearing mice, 0.5 hour after injection
Experimental: The labeled solution (0.1 mL, 74 KBq) is injected into mice through the tail vein, and the injection time is recorded. Then the mice were killed by cervical dislocation at different time phases (30 minutes, 60 minutes, and 120 minutes), five mice for each time phase, and the organs of interest such as heart, liver, lung, kidney, spleen, stomach, muscle, blood and tumor are taken out after dissection, and measured with a γ-counter for the radioactive count of each organ. The uptake value of each organ is obtained by calculation based on the mass of the organ (with % ID/g as the unit).

[1] = Determination of the lipid-water partition coefficient (n-octanol/PBS); type: physicochemical
Experimental: One hundred μL of the labeled substance solution (50 μCi) diluted with normal saline is placed into a 2 mL centrifuge tube, and then 800 μL of n-octanol and 700 μL of PBS are added to the centrifuge tube, which is subsequently covered with a cap. The centrifuge tube is vortexed for 3 minutes (2500 r/minute), allowed to stand until the solution is layered, and centrifuged in a centrifuge for 3 minutes (3000 r/minute). Three samples of the upper organic phase and three samples of the lower aqueous phase are taken, each 100 μL, and detected in a γ-counter for the radioactive counts of the organic and aqueous phases, respectively.

tumor-bearing mice [2] = assay: SPECT imaging in tumor-bearing mice; type: in vivo; conditions: 0.2 mL, 700 μCi tail vein, imaging 1 hour later
Experimental: The prepared [^99mTc-(CN3DG)6]^+ or [^99mTc-(CN5DG)6]^+ (0.2 mL, 700 μCi) is injected into tumor-bearing mice through tail vein, and SPECT imaging is performed 1 hour later.

tumor-bearing mice [3] = conditions: 0.5 hour after injection, literature; cited from earlier work

## O=C(CC[N+]#[C][99Tc-5]([C]#[N+]CCC(=O)NC1C(O)OC(CO)C(O)C1O)([C]#[N+]CCC(=O)NC1C(O)OC(CO)C(O)C1O)([C]#[N+]CCC(=O)NC1C(O)OC(CO)C(O)C1O)([C]#[N+]CCC(=O)NC1C(O)OC(CO)C(O)C1O)[C]#[N+]CCC(=O)NC1C(O)OC(CO)C(O)C1O)NC1C(O)OC(CO)C(O)C1O (centres unmarked) [[^99mTc-(CN2DG)6]^+]
S180-bearing mice; 30 min
  Blood uptake: 0.94 ± 0.18 % ID/g
  Bone uptake: 0.32 ± 0.07 % ID/g
  Heart uptake: 0.34 ± 0.06 % ID/g
  Kidney uptake: 3.11 ± 1.04 % ID/g
  Liver uptake: 0.35 ± 0.06 % ID/g
  Lung uptake: 0.94 ± 0.18 % ID/g
  Muscle uptake: 0.27 ± 0.07 % ID/g
  Small intestine uptake: 0.44 ± 0.16 % ID/g
  Spleen uptake: 0.31 ± 0.09 % ID/g
  Stomach uptake: 0.38 ± 0.15 % ID/g
  Tumor uptake: 1.09 ± 0.23 % ID/g
  Tumor/blood ratio: 1.16
  Tumor/muscle ratio: 4.04
S180-bearing mice; 60 min
  Blood uptake: 0.20 ± 0.05 % ID/g
  Bone uptake: 0.10 ± 0.02 % ID/g
  Heart uptake: 0.12 ± 0.02 % ID/g
  Kidney uptake: 1.17 ± 0.27 % ID/g
  Liver uptake: 0.18 ± 0.02 % ID/g
  Lung uptake: 0.26 ± 0.06 % ID/g
  Muscle uptake: 0.08 ± 0.00 % ID/g
  Small intestine uptake: 0.19 ± 0.03 % ID/g
  Spleen uptake: 0.13 ± 0.02 % ID/g
  Stomach uptake: 0.19 ± 0.07 % ID/g
  Tumor uptake: 0.50 ± 0.07 % ID/g
  Tumor/blood ratio: 2.78
  Tumor/muscle ratio: 6.25
S180-bearing mice; 120 min
  Blood uptake: 0.01 ± 0.00 % ID/g
  Bone uptake: 0.05 ± 0.02 % ID/g
  Heart uptake: 0.05 ± 0.02 % ID/g
  Kidney uptake: 0.68 ± 0.11 % ID/g
  Liver uptake: 0.09 ± 0.01 % ID/g
  Lung uptake: 0.09 ± 0.04 % ID/g
  Muscle uptake: 0.04 ± 0.01 % ID/g
  Small intestine uptake: 0.12 ± 0.02 % ID/g
  Spleen uptake: 0.07 ± 0.01 % ID/g
  Stomach uptake: 0.15 ± 0.06 % ID/g
  Tumor uptake: 0.25 ± 0.05 % ID/g
  Tumor/blood ratio: 25.00
  Tumor/muscle ratio: 6.25
S180-bearing mice
  Tumor/liver ratio: 3.11
[1]
  Log P (lipid-water partition coefficient): −4.26±0.12

## O=C(CCC[N+]#[C][99Tc-5]([C]#[N+]CCCC(=O)NC1C(O)OC(CO)C(O)C1O)([C]#[N+]CCCC(=O)NC1C(O)OC(CO)C(O)C1O)([C]#[N+]CCCC(=O)NC1C(O)OC(CO)C(O)C1O)([C]#[N+]CCCC(=O)NC1C(O)OC(CO)C(O)C1O)[C]#[N+]CCCC(=O)NC1C(O)OC(CO)C(O)C1O)NC1C(O)OC(CO)C(O)C1O (centres unmarked) [[^99mTc-(CN3DG)6]^+]
S180-bearing mice; 30 min
  Blood uptake: 0.78 ± 0.16 % ID/g
  Bone uptake: 0.27 ± 0.05 % ID/g
  Heart uptake: 0.40 ± 0.07 % ID/g
  Kidney uptake: 2.17 ± 0.43 % ID/g
  Liver uptake: 0.39 ± 0.12 % ID/g
  Lung uptake: 0.78 ± 0.12 % ID/g
  Muscle uptake: 0.37 ± 0.08 % ID/g
  Small intestine uptake: 0.44 ± 0.08 % ID/g
  Spleen uptake: 0.28 ± 0.05 % ID/g
  Stomach uptake: 0.64 ± 0.25 % ID/g
  Tumor uptake: 1.49 ± 0.08 % ID/g
  Tumor/blood ratio: 1.91
  Tumor/muscle ratio: 4.03
S180-bearing mice; 60 min
  Blood uptake: 0.12 ± 0.03 % ID/g
  Bone uptake: 0.15 ± 0.02 % ID/g
  Heart uptake: 0.22 ± 0.04 % ID/g
  Kidney uptake: 1.05 ± 0.21 % ID/g
  Liver uptake: 0.23 ± 0.03 % ID/g
  Lung uptake: 0.23 ± 0.04 % ID/g
  Muscle uptake: 0.17 ± 0.07 % ID/g
  Small intestine uptake: 0.21 ± 0.14 % ID/g
  Spleen uptake: 0.15 ± 0.03 % ID/g
  Stomach uptake: 0.25 ± 0.07 % ID/g
  Tumor uptake: 1.00 ± 0.17 % ID/g
  Tumor/blood ratio: 8.33
  Tumor/muscle ratio: 5.88
S180-bearing mice; 120 min
  Blood uptake: 0.04 ± 0.02 % ID/g
  Bone uptake: 0.13 ± 0.04 % ID/g
  Heart uptake: 0.22 ± 0.05 % ID/g
  Kidney uptake: 1.23 ± 0.26 % ID/g
  Liver uptake: 0.28 ± 0.04 % ID/g
  Lung uptake: 0.17 ± 0.05 % ID/g
  Muscle uptake: 0.17 ± 0.05 % ID/g
  Small intestine uptake: 0.14 ± 0.06 % ID/g
  Spleen uptake: 0.17 ± 0.06 % ID/g
  Stomach uptake: 0.31 ± 0.06 % ID/g
  Tumor uptake: 0.68 ± 0.23 % ID/g
  Tumor/blood ratio: 17.00
  Tumor/muscle ratio: 4.00
S180-bearing mice
  Tumor/liver ratio: 3.82
[1]
  Log P (lipid-water partition coefficient): −4.01±0.17
tumor-bearing mice [2]
  SPECT imaging: aggregation at the tumor sites: evident aggregation at the tumor sites
  SPECT imaging: concentration in kidney: relatively high concentration in kidney
  SPECT imaging: uptake in other organs: relatively low

## O=C(CCCC[N+]#[C][99Tc-5]([C]#[N+]CCCCC(=O)NC1C(O)OC(CO)C(O)C1O)([C]#[N+]CCCCC(=O)NC1C(O)OC(CO)C(O)C1O)([C]#[N+]CCCCC(=O)NC1C(O)OC(CO)C(O)C1O)([C]#[N+]CCCCC(=O)NC1C(O)OC(CO)C(O)C1O)[C]#[N+]CCCCC(=O)NC1C(O)OC(CO)C(O)C1O)NC1C(O)OC(CO)C(O)C1O (centres unmarked) [[^99mTc-(CN4DG)6]^+]
S180-bearing mice; 30 min
  Blood uptake: 1.80 ± 0.53 % ID/g
  Bone uptake: 0.73 ± 0.23 % ID/g
  Heart uptake: 0.70 ± 0.18 % ID/g
  Kidney uptake: 4.93 ± 1.11 % ID/g
  Liver uptake: 0.66 ± 0.13 % ID/g
  Lung uptake: 1.75 ± 0.49 % ID/g
  Muscle uptake: 0.57 ± 0.18 % ID/g
  Small intestine uptake: 1.06 ± 0.33 % ID/g
  Spleen uptake: 0.53 ± 0.12 % ID/g
  Stomach uptake: 0.81 ± 0.33 % ID/g
  Tumor uptake: 1.72 ± 0.30 % ID/g
  Tumor/blood ratio: 0.95
  Tumor/muscle ratio: 3.01
S180-bearing mice; 60 min
  Blood uptake: 0.30 ± 0.13 % ID/g
  Bone uptake: 0.19 ± 0.04 % ID/g
  Heart uptake: 0.22 ± 0.08 % ID/g
  Kidney uptake: 1.57 ± 0.27 % ID/g
  Liver uptake: 0.28 ± 0.06 % ID/g
  Lung uptake: 0.40 ± 0.11 % ID/g
  Muscle uptake: 0.27 ± 0.17 % ID/g
  Small intestine uptake: 0.25 ± 0.11 % ID/g
  Spleen uptake: 0.21 ± 0.04 % ID/g
  Stomach uptake: 0.23 ± 0.07 % ID/g
  Tumor uptake: 0.88 ± 0.09 % ID/g
  Tumor/blood ratio: 2.93
  Tumor/muscle ratio: 3.26
S180-bearing mice; 120 min
  Blood uptake: 0.03 ± 0.01 % ID/g
  Bone uptake: 0.13 ± 0.09 % ID/g
  Heart uptake: 0.10 ± 0.04 % ID/g
  Kidney uptake: 1.24 ± 0.53 % ID/g
  Liver uptake: 0.17 ± 0.03 % ID/g
  Lung uptake: 0.13 ± 0.02 % ID/g
  Muscle uptake: 0.15 ± 0.07 % ID/g
  Small intestine uptake: 0.36 ± 0.21 % ID/g
  Spleen uptake: 0.11 ± 0.02 % ID/g
  Stomach uptake: 0.08 ± 0.01 % ID/g
  Tumor uptake: 0.45 ± 0.17 % ID/g
  Tumor/blood ratio: 15.00
  Tumor/muscle ratio: 3.00
S180-bearing mice
  Tumor/liver ratio: 2.60
[1]
  Log P (lipid-water partition coefficient): −3.84±0.06

## O=C(NC1C(O)O[C@H](CO)[C@@H](O)[C@@H]1O)C1C[S][Tc]23(=[O])[S]C[C@@H](C(=O)NC4C(O)O[C@H](CO)[C@@H](O)[C@@H]4O)[N]2CC[N]13 (some centres unmarked) [^99mTc-ECDG]
tumor-bearing mice [3]
  Blood uptake: 1.61 ± 0.39 % ID/g
  Kidney uptake: 6.73 ± 1.84 % ID/g
  Liver uptake: 5.67 ± 2.08 % ID/g
  Muscle uptake: 0.26 ± 0.07 % ID/g
  Tumor uptake: 0.79 ± 0.16 % ID/g
  Tumor/blood ratio: 0.49
  Tumor/liver ratio: 0.14
  Tumor/muscle ratio: 3.04
